Laboratory results as given in patent US20180333379A1 (priority 2018, published 2018).

What was measured:
β-amyloid peptide(1-40) = target: T1, β-amyloid peptide(1-40) (Homo sapiens, UniProt P05067); settings: cited from earlier work
T1 construct: when incubated with β-amyloid peptide(1-40); (Park, Kim, Son, & Yang, 2009)

neurons = settings: cited from earlier work
[1] = cited from earlier work
[2] = target: T2, β-2-microglobulin aggregates (Homo sapiens, UniProt P61769); assay: Citrate treatment of β-2-microglobulin aggregates (thioflavin T fluorescence microscopy); type: biochemical; settings: 2 weeks, thioflavin T stain
T2 construct: purchased Lee Biosolutions, Maryland Heights, Mo
T2 sequence (P61769 21-119): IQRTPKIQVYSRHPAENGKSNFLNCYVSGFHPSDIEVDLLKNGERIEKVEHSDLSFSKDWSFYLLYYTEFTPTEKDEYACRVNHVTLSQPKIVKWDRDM
Method: (§1) In the following experiments, the concentration of thioflavin T was thirty micromolar in phosphate buffered saline (PBS), and the staining time was five minutes.
(§2) In the following experiments, an […] observer interpreted fluorescence. Interpretation of microscopic fluorescence intensity may be subject to bias. Staining times and washes were controlled.
One milliliter of β-2-microglobulin (Lee Biosolutions, Maryland Heights, Mo.) at a concentration of 1 mg/0.5 ml were mixed with two milliliters of 10 mM calcium chloride in normal saline at 37° C. for three weeks, and a precipitate formed. […] The precipitate was aspirated and stained with 10 microliters of thioflavin T, washed twice with phosphate bufferd saline (PBS), and each sample was observed under an epifluorescent microscope with B2 filter (excitation filter, 450-490 nm; barrier filter, 520 nm). (Table 1)

[3] = target: T3, amyloid β peptide(1-40) aggregates (Homo sapiens, UniProt P05067); assay: Citrate treatment of amyloid β peptide(1-40) aggregates (thioflavin T fluorescence microscopy); type: biochemical; settings: 48 hours, 37° C.
T3 construct: amyloid β peptide(1-40) (Abcam, Cambridge, United Kingdom); purchased Abcam, Cambridge, United Kingdom
T3 sequence (P05067 672-711 limits assumed): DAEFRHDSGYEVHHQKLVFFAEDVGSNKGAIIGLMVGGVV
Method: as §1, §2
A precipitate formed and the sample was centrifuged at 1500 rpm for five minutes. […] Then, five microliters of thioflavin T were added to each sample, and after five minutes, the samples were centrifuged at 1500 rpm for five minutes and washed twice with PBS. Aggregates in the micro centrifuge tubes were aspirated and observed under an epifluorescent microscope with B2 filter. (Table 3)

[4] = 280-310 milliosmoles per liter, pH 6-8, animal preparation; cited from earlier work
alpha synuclein = alpha synuclein (Homo sapiens, UniProt P37840); settings: 10 mM calcium chloride in PBS, 37° C., four weeks
Method: Five hundred micrograms of alpha synuclein (rPeptide, LLC, Athens, Ga.) was dissolved in 400 microliters of 10 mM calcium chloride in PBS and incubated at 37° C. for four weeks.

T1 sequence (P05067 672-711 limits assumed): as above

Structure (SMILES): O=C(O)CC(O)(CC(=O)O)C(=O)O [Citrate]
- Formation of amyloid-like aggregates (β-amyloid peptide(1-40)): inhibit formation of amyloid-like aggregates
- Protection of neurons from apoptotic effects of β-amyloid peptide(1-40) (neurons): protect neurons from the apoptotic effects
- Blood brain barrier crossing ([1]; in vivo): freely crosses the blood brain barrier
- Cerebral spinal fluid to plasma concentration of citrate ([1]; in vivo): approximately two-three to one
- Average CSF concentration ([1]; normal volunteers): 0.18 mM
- Average plasma citrate concentration ([1]; normal volunteers): 0.09 mM
- CSF citrate concentration ([1]; patients with cerebrovascular disorders): ≤ 0.3 mM

Structure (SMILES): O=C([O-])CC(O)(CC(=O)[O-])C(=O)[O-].[Na+].[Na+].[Na+] [Sodium citrate, sodium citrate]
- Presence of fluorescent fibrils ([2]; sodium citrate 0.01 mM): Present
- Presence of fluorescent fibrils ([2]; sodium citrate 0.1 mM): Present
- Presence of fluorescent fibrils ([2]; sodium citrate 10 mM): Absent
- Presence of fluorescent fibrils ([2]; sodium citrate 100 mM): Absent
- Presence of fluorescent fibrils ([2]; sodium citrate 1M): Present
- Thioflavin T fluorescence ([3]; sodium citrate 0.01 mM in PBS): Present
- Thioflavin T fluorescence ([3]; sodium citrate 0.10 mM in PBS): Present
- Thioflavin T fluorescence ([3]; sodium citrate 1.00 mM in PBS): Minimally present
- Thioflavin T fluorescence ([3]; sodium citrate 10.00 mM in PBS): Absent
- Effect on vertebral bone weight [4]: decreased vertebral bone weight
- Effect on weight of ligamentum flavum, dura mater, and spinal cord [4]: minimal effect

Structure (SMILES): [Ca+2].[Cl-].[Cl-] [calcium chloride]
- Precipitate formation (alpha synuclein): No precipitate formed
